Reference: US8129398B2 (priority 2008, dated 2012)

Target: T1, HIV-integrase (Human immunodeficiency virus type 1 group M subtype B, UniProt P12497)
T1 construct: Recombinant integrase (0.26 ng) was incubated with the beads
Experiment: HIV-Integrase Inhibition Activity (SPA bead integration assay with P33 labeled target DNA)
Type: biochemical
Conditions: in vitro activity, recombinant integrase, class symbols
Method in brief: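 Strand integration read as bead-proximity CPM after P33 target DNA (0.1 fmol) and inhibitor were added to washed integrase–substrate DNA complexes on SPA beads. Enzyme bound 90 min at 37° C; EDTA (10 mM final) terminated reaction; IC50 graded A/B/C.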

In the case of CC1(C)[C@@H]2CC[C@@]1(C)[C@@H](NS(C)(=O)=O)c1nc(C(=O)NCc3ccc(F)cc3)c(O)c(=O)n1C2 [Example 185, (7S,10R,11R)—N-(4-Fluorobenzyl)-3-hydroxy-10,12,12-trimethyl-11-((methylsulfonyl)amino)-4-oxo-6,7,8,9,10,11-hexahydro-4H-7,10-methanopyrimido[1,2-a]azocine-2-carboxamide], the IC50 is reported as > 0.1 µM.

Same assay, conditions: recombinant integrase, class symbols; read-out: in vitro activity

Cc1nnc(C(=O)NC23CCC(CC2)n2c3nc(C(=O)NCc3ccc(F)cc3)c(O)c2=O)o1 [Example 17, 6,9-Ethano-4H-pyrido[1,2-a]pyrimidine-2-carboxamide, N-[(4-fluorophenyl)methyl]-6,7,8,9-tetrahydro-3-hydroxy-9-[[(5-methyl-1,3,4-oxadiazol-2-yl)carbonyl]amino]-4-oxo-] and CS(=O)(=O)NC12CCC(CC1)n1c2nc(C(=O)NCc2ccc(F)cc2)c(O)c1=O [Example 13, 6,9-ethano-4H-pyrido[1,2-a]pyrimidine-2-carboxamide, N-[(4-fluorophenyl)methyl]-6,7,8,9-tetrahydro-3-hydroxy-9-[(methylsulfonyl)amino]-4-oxo-] cannot be ordered by IC50: < 0.01 µM for the first, < 0.01 µM for the second.

O=C(NC12CCC(CC1)Cn1c2nc(C(=O)NCc2ccc(F)cc2)c(O)c1=O)c1ncccn1 [Example 311, 7,10-Ethanopyrimido[1,2-a]azepine-2-carboxamide, N-[(4-fluorophenyl)methyl]-4,6,7,8,9,10-hexahydro-3-hydroxy-4-oxo-10-[(2-pyrimidinylcarbonyl)amino]-] and Cc1cc(CNC(=O)c2nc3n(c(=O)c2O)CC2CCC3(NC(=O)c3cccnc3)CC2)ccc1F [Example 312, 7,10-Ethanopyrimido[1,2-a]azepine-2-carboxamide, N-[(4-fluoro-3-methylphenyl)methyl]-4,6,7,8,9,10-hexahydro-3-hydroxy-4-oxo-10-[(3-pyridinylcarbonyl)amino]-] cannot be ordered by IC50: < 0.01 µM for the first, < 0.01 µM for the second.

CN(C)C(=O)N1CCN(C(=O)C(=O)NC23CCC(CC2)Cn2c3nc(C(=O)NCc3ccc(F)cc3)c(O)c2=O)CC1 [Example 80, 10-(((4-(Dimethylcarbamoyl)-1-piperazinyl)(oxo)acetyl)amino)-N-(4-fluorobenzyl)-3-hydroxy-4-oxo-4,6,7,8,9,10-hexahydro-7,10-ethanopyrimido[1,2-a]azepine-2-carboxamide] and CN(C)S(=O)(=O)N1CCN(C(=O)C(=O)NC23CCC(CC2)Cn2c3nc(C(=O)NCc3ccc(F)cc3)c(O)c2=O)CC1 [Example 145, 10-(((4-(Dimethylsulfamoyl)-1-piperazinyl)(oxo)acetyl)amino)-N-(4-fluorobenzyl)-3-hydroxy-4-oxo-4,6,7,8,9,10-hexahydro-7,10-ethanopyrimido[1,2-a]azepine-2-carboxamide] cannot be ordered by IC50: < 0.01 µM for the first, < 0.01 µM for the second.

First: CN(C)C(=O)C(=O)NC12CCC(CC1)Cn1c2nc(C(=O)NCC2CCCO2)c(O)c1=O (centres unmarked) [Example 338]
Second: CN(C)C(=O)C(=O)NC12CCC(CC1)Cn1c2nc(C(=O)NCc2ccccn2)c(O)c1=O [Example 363]
The IC50 of the first is higher: > 0.1 µM for the first, 0.01 to 0.1 µM for the second. The second is the more potent here.

CN(C)C(=O)C(=O)NC12CCC(CC1)Cn1c2nc(C(=O)NCc2ccccc2-c2ccccc2)c(O)c1=O [Example 387] and CN(C)C(=O)C(=O)NC12CCC(CC1)Cn1c2nc(C(=O)NCc2cccc(-c3ccccc3)c2)c(O)c1=O [Example 388] cannot be ordered by IC50: < 0.01 µM for the first, < 0.01 µM for the second.

Cc1cc(CNC(=O)c2nc3n(c(=O)c2O)CC2CCC3(NC(=O)C3(c4ccccn4)CC3)CC2)ccc1F [Example 304, 7,10-Ethanopyrimido[1,2-a]azepine-2-carboxamide, N-[(4-fluoro-3-methylphenyl)methyl]-4,6,7,8,9,10-hexahydro-3-hydroxy-4-oxo-10-[[[1-(2-pyridinyl)cyclopropyl]carbonyl]amino]-] and Cc1cc(CNC(=O)c2nc3n(c(=O)c2O)CC2CCC3(NC(=O)C(C)(C)n3cccn3)CC2)ccc1F [Example 281, 7,10-Ethanopyrimido[1,2-a]azepine-2-carboxamide, N-[(4-fluoro-3-methylphenyl)methyl]-4,6,7,8,9,10-hexahydro-3-hydroxy-10-[[2-methyl-1-oxo-2-(1H-pyrazol-1-yl)propyl]amino]-4-oxo-] cannot be ordered by IC50: < 0.01 µM for the first, < 0.01 µM for the second.

Cc1cc(CNC(=O)c2nc3n(c(=O)c2O)CC2CCC3(NC(=O)C(=O)N(C)C)CC2)nn1C(C)(C)C [Example 236, Ethanediamide, N′-[2-[[[[1-(1,1-dimethylethyl)-5-methyl-1H-pyrazol-3-yl]methyl]amino]carbonyl]-6,7,8,9-tetrahydro-3-hydroxy-4-oxo-7,10-ethanopyrimido[1,2-a]azepin-10(4H)-yl]-N,N-dimethyl-] and CN(C)C(=O)C(=O)NC12CCC(CC1)Cn1c2nc(C(=O)NCc2ccc(N)cc2)c(O)c1=O [Example 385] fall in the same range of IC50: 0.01 to 0.1 µM for the first, 0.01 to 0.1 µM for the second.

COCCN(C)C(=O)C(=O)NC12CCC(CC1)Cn1c2nc(C(=O)NCc2ccc(F)cc2)c(O)c1=O [Example 100, N′-(2-((4-Fluorobenzyl)carbamoyl)-3-hydroxy-4-oxo-6,7,8,9-tetrahydro-7,10-ethanopyrimido[1,2-a]azepin-10(4H)-yl)-N-(2-methoxyethyl)-N-methylethanediamide] and COCCN(C)C(=O)C(=O)NC12CCC(CC1)Cn1c2nc(C(=O)NCc2ccc(F)c(C)c2)c(O)c1=O [Example 134, N′-(2-((4-Fluoro-3-methylbenzyl)carbamoyl)-3-hydroxy-4-oxo-6,7,8,9-tetrahydro-7,10-ethanopyrimido[1,2-a]azepin-10(4H)-yl)-N-(2-methoxyethyl)-N-methylethanediamide] cannot be ordered by IC50: < 0.01 µM for the first, < 0.01 µM for the second.

CC(C)N(C)C(=O)C(=O)NC12CCC(CCn3c1nc(C(=O)NCc1ccc(F)cc1)c(O)c3=O)C2 (centres unmarked) [Example 206, Ethanediamide, N′-[2-[[[(4-fluorophenyl)methyl]amino]carbonyl]-7,8,9,10-tetrahydro-3-hydroxy-4-oxo-8,11-methano-4H-pyrimido[1,2-a]azocin-11(6H)-yl]-N-methyl-N-(1-methylethyl)-] and O=C(NC12CCC(CCn3c1nc(C(=O)NCc1ccc(F)cc1)c(O)c3=O)C2)C(=O)N1CCC(F)CC1 (centres unmarked) [Example 203, 8,1,1-Methano-4H-pyrimido[1,2-a]azocine-2-carboxamide, N-[(4-fluorophenyl)methyl]-11-[[2-(4-fluoro-1-piperidinyl)-1,2-dioxoethyl]amino]-6,7,8,9,10,11-hexahydro-3-hydroxy-4-oxo-] cannot be ordered by IC50: < 0.01 µM for the first, < 0.01 µM for the second.

COCCOC12CCC(CC1)Cn1c2nc(C(=O)NCc2ccc(F)cc2)c(O)c1=O [Example 225, 7,10-Ethanopyrimido[1,2-a]azepine-2-carboxamide, N-[(4-fluorophenyl)methyl]-4,6,7,8,9,10-hexahydro-3-hydroxy-10-(2-methoxyethoxy)-4-oxo-] and O=C(CN1CCCC1=O)NC12CCC(CC1)Cn1c2nc(C(=O)NCc2ccc(F)cc2)c(O)c1=O [Example 43, N-(4-Fluorobenzyl)-3-hydroxy-4-oxo-10-(((2-oxo-1-pyrrolidinyl)acetyl)amino)-4,6,7,8,9,10-hexahydro-7,10-ethanopyrimido[1,2-a]azepine-2-carboxamide] cannot be ordered by IC50: < 0.01 µM for the first, < 0.01 µM for the second.

CN(C)C(=O)C(=O)NC12CCC(CC1)Cn1c2nc(C(=O)NCc2ccc(F)cc2F)c(O)c1=O [Example 114, N′-(2-((2,4-Difluorobenzyl)carbamoyl)-3-hydroxy-4-oxo-6,7,8,9-tetrahydro-7,10-ethanopyrimido[1,2-a]azepin-10(4H)-yl)-N,N-dimethylethanediamide] and CN(C)C(=O)C(=O)N1CCC[C@H]1C(=O)NC12CCC(CC1)Cn1c2nc(C(=O)NCc2ccc(F)cc2)c(O)c1=O [Example 269, 7,10-Ethanopyrimido[1,2-a]azepine-2-carboxamide, 10-[[[(2S)-1-[2-(dimethylamino)-1,2-dioxoethyl]-2-pyrrolidinyl]carbonyl]amino]-N-[(4-fluorophenyl)methyl]-4,6,7,8,9,10-hexahydro-3-hydroxy-4-oxo-] cannot be ordered by IC50: < 0.01 µM for the first, < 0.01 µM for the second.

CO[C@H]1C[C@@H](C(=O)NC23CCC(CC2)Cn2c3nc(C(=O)NCc3ccc(F)c(C)c3)c(O)c2=O)N(C(=O)c2nccn2C)C1 [Example 298, 7,10-Ethanopyrimido[1,2-a]azepine-2-carboxamide, N-[(4-fluoro-3-methylphenyl)methyl]-4,6,7,8,9,10-hexahydro-3-hydroxy-10-[[[(2S,4S)-4-methoxy-1-[(1-methyl-1H-imidazol-2-yl)carbonyl]-2-pyrrolidinyl]carbonyl]amino]-4-oxo-] and CC(=O)N1CCC[C@H]1C(=O)NC12CCC(CC1)Cn1c2nc(C(=O)NCc2ccc(F)c(C)c2)c(O)c1=O [Example 262, 7,10-Ethanopyrimido[1,2-a]azepine-2-carboxamide, 10-[[[(2S)-1-acetyl-2-pyrrolidinyl]carbonyl]amino]-N-[(4-fluoro-3-methylphenyl)methyl]-4,6,7,8,9,10-hexahydro-3-hydroxy-4-oxo-] cannot be ordered by IC50: < 0.01 µM for the first, < 0.01 µM for the second.

COc1cc(CNC(=O)c2nc3n(c(=O)c2O)CC2CCC3(N(C)C(=O)C(=O)N(C)C)CC2)ccc1F [Example 160, N-(2-((4-Fluoro-3-methoxybenzyl)carbamoyl)-3-hydroxy-4-oxo-6,7,8,9-tetrahydro-7,10-ethanopyrimido[1,2-a]azepin-10(4H)-yl)-N,N′,N′-trimethylethanediamide] and Cc1cc(CNC(=O)c2nc3n(c(=O)c2O)CC2CCC3(NC(=O)[C@@H]3CCCN3S(C)(=O)=O)CC2)ccc1F [Example 263, 7,10-Ethanopyrimido[1,2-a]azepine-2-carboxamide, N-[(4-fluoro-3-methylphenyl)methyl]-4,6,7,8,9,10-hexahydro-3-hydroxy-10-[[[(2S)-1-(methylsulfonyl)-2-pyrrolidinyl]carbonyl]amino]-4-oxo-] cannot be ordered by IC50: < 0.01 µM for the first, < 0.01 µM for the second.

CC(C)C(=O)N1CCCC1C(=O)NC12CCC(CC1)Cn1c2nc(C(=O)NCc2ccc(F)cc2)c(O)c1=O (centres unmarked) [Example 399] and Cc1oncc1S(=O)(=O)NC12CCC(CC1)Cn1c2nc(C(=O)NCc2ccc(F)cc2)c(O)c1=O [Example 393] cannot be ordered by IC50: < 0.01 µM for the first, < 0.01 µM for the second.
